28 compounds from patent US7511065B2, “Mixed lineage kinase modulators” (Eli Lilly and Company, priority 2002, dated 2009) can be followed below.

pIC50: −log10 of the molar value.

As a reminder, the pIC50 is the IC50 on a negative log10 scale, so that one unit is a factor of ten.

For the assay, the target named is T1, MLK-7 (Homo sapiens, UniProt Q9NYL2).
T1 construct: GST; His tag; made in house; host or cells: Sf9 insect cells (baculovirus, pVL1392)
T1 sequence (Q9NYL2 1-455 isoform Q9NYL2-2): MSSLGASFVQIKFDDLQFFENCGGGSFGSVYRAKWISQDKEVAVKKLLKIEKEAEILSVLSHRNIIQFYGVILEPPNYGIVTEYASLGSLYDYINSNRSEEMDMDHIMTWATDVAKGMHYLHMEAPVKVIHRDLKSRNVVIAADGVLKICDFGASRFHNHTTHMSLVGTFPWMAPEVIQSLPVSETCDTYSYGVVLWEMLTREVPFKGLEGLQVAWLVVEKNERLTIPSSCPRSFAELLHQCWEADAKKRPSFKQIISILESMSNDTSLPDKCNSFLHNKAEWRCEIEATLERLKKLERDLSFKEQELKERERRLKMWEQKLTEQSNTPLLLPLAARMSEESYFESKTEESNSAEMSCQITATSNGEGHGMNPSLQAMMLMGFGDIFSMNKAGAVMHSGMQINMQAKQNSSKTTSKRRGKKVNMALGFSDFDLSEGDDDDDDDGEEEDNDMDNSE
Put plainly: In vitro assay of purified MLK-7 kinase activity (33P transfer from ATP to myelin basic protein). The class given is biochemical. Conditions: recombinant GST-tagged MLK-7 at 1 nm, 30 uM ATP, 5 uM MBP substrate, 2 hours room temperature; read-out: MLK7 IC50. From the text:
In Vitro Assay of Purified Mixed Lineage Kinase 7 (MLK-7) Activity:
Briefly, recombinant glutathione-s-transferase (GST) tagged MLK-7 is expressed in Sf9 cells using a recombinant baculovirus created using baculovirus transfer vector pVL1392 modified to contain a GST and histidine tag. The recombinant protein is purified over a glutathione column and subsequently used for in vitro kinase assays with myelin basic protein (MBP) as the substrate for phosphorylation. The in vitro kinase reaction is run with recombinant MLK-7 at 1 nm and various concentrations of test compound in a reaction mixture containing 2 mM DTT, 30 uM ATP, 5 mM MgCl2, 5 uM MBP, 4% DMSO, 5 uCi 33P in 44 mM HEPES, (pH 7.4). The reaction is carried out for 2 hours at room temperature and then stopped by the addition of phosphoric acid to 5.5%. The phosphorylated MBP is collected on a filter and radioactivity associated with the membrane measured using a scintillation counter. Inhibitors are identified by the ability to reduce the transfer of radioactive phosphate from ATP to MBP compared to controls run without test compound.
IC50 values, defined as the concentration of test compound required to decrease the transfer of radioactive phosphate from ATP to MBP by 50%, are then determined. Ki values (which refers to the dissociation constant of an enzyme-antagonist complex and serves as an index of ligand binding) for each respective test compound can also be calculated by application of the Cheng-Prusoff equation as described in Cheng et al., Relationship Between The Inhibition Constant (Ki) and The Concentration of Inhibitor Which Causes 50% Inhibition (IC50) of an Enzymatic Reaction, Biochem. Pharmacol., 22: […]; (1973).
Representative compounds of the present invention have an IC50 in the MLK-7 kinase assay of ≦10,000 nM Table I (see infra.) provides IC50 data from the afore mentioned MLK-7 kinase assay for a representative sample of the exemplified compounds of the present invention.
On to `Clc1ccc(-c2ccc3c(-c4c(-c5ccccn5)nn5c4CCC5)ccnc3c2)cc1Cl` [Example 55, 7-(3,4-Dichlorophenyl)-4-(2-pyridin-2-yl-5,6-dihydro-4H-pyrrolo[1,2-b]pyrazol-3-yl)-quinoline], for which the pIC50 is no less than 6.00.

Take `Cc1cccc(-c2nn3c(c2-c2ccnc4cc(-c5ccc(C(=O)O)cc5)ccc24)CCC3)n1` [Example 57, 4-{4-[2-(6-Methyl-pyridin-2-yl)-5,6-dihydro-4H-pyrrolo[1,2-b]pyrazol-3-yl]-quinolin-7-yl}-benzoic acid]: the pIC50 is no less than 7.00. For `Cc1cccc(-c2nn3c(c2-c2ccnc4cc(-c5ccc(CCC(=O)O)cc5)ccc24)CCC3)n1` [Example 58, 3-(4-{4-[2-(6-Methyl-pyridin-2-yl)-5,6-dihydro-4H-pyrrolo[1,2-b]pyrazol-3-yl]-quinolin-7-yl}-phenyl)-propionic acid] the value was no less than 7.00. To `Cc1cccc(-c2nn3c(c2-c2ccnc4cc(-c5ccc(F)cc5)ccc24)CCC3)n1` [Example 59, 7-(4-Fluoro-phenyl)-4-[2-(6-methyl-pyridin-2-yl)-5,6-dihydro-4H-pyrrolo[1,2-b]pyrazol-3-yl]-quinoline] belongs no less than 7.00. To `COc1ccc(-c2ccc3c(-c4c(-c5cccc(C)n5)nn5c4CCC5)ccnc3c2)cc1` [Example 60, 7-(4-Methoxy-phenyl)-4-[2-(6-methyl-pyridin-2-yl)-5,6-dihydro-4H-pyrrolo[1,2-b]pyrazol-3-yl]-quinoline] belongs no less than 7.00; to `Cc1cccc(-c2nn3c(c2-c2ccnc4cc(-c5ccccc5)ccc24)CCC3)n1` [Example 61, 7-Phenyl-4-[2-(6-methyl-pyridin-2-yl)-5,6-dihydro-4H-pyrrolo[1,2-b]pyrazol-3-yl]-quinoline Trifluoroacetic Acid], no less than 7.00. Consider `Cc1cccc(-c2nn3c(c2-c2ccnc4cc(-c5cccs5)ccc24)CCC3)n1` [Example 62, 4-[2-(6-Methyl-pyridin-2-yl)-5,6-dihydro-4H-pyrrolo[1,2-b]pyrazol-3-yl]-7-thiophen-2-yl-quinoline Trifluoroacetic Acid], for which the pIC50 is no less than 7.00.

With `Cc1cccc(-c2nn3c(c2-c2ccnc4cc(-c5cccc([N+](=O)[O-])c5)ccc24)CCC3)n1` [Example 63, 4-[2-(6-Methyl-pyridin-2-yl)-5,6-dihydro-4H-pyrrolo[1,2-b]pyrazol-3-yl]-7-(3-nitro-phenyl)quinoline], the negative-log IC50 (pIC50) is no less than 7.00. To `Cc1cccc(-c2nn3c(c2-c2ccnc4cc(-c5ccc(Cl)cc5)ccc24)CCC3)n1` [Example 64, 7-(4-Chloro-phenyl)-4-[2-(6-methyl-pyridin-2-yl)-5,6-dihydro-4H-pyrrolo[1,2-b]pyrazol-3-yl]-quinoline] belongs no less than 6.00; to `c1ccc(-c2nn3c(c2-c2ccnc4cc(-c5ccco5)ccc24)CCC3)nc1` [Example 65, 7-Furan-2-yl-4-(2-Pyridin-2-yl-5,6-dihydro-4H-pyrrolo[1,2-b]pyrazol-3-yl)quinoline Trifluoroacetic Acid], no less than 7.00. For `c1ccc(-c2nn3c(c2-c2ccnc4cc(-c5nccs5)ccc24)CCC3)nc1` [Example 66, 4-(2-Pyridin-2-yl-5,6-dihydro-4H-pyrrolo[1,2-b]pyrazol-3-yl)-7-thiazol-2-yl-quinoline Trifluoroacetic Acid] the value was no less than 7.00; for `c1ccc(-c2nn3c(c2-c2ccnc4cc(-c5cnccn5)ccc24)CCC3)nc1` [Example 67, 7-Pyrazin-2-yl-4-(2-Pyridin-2-yl-5,6-dihydro-4H-pyrrolo[1,2-b]pyrazol-3-yl)quinoline Ditrifluoroacetic Acid], no less than 6.00; for `c1ccc(-c2ccc3c(-c4c(-c5ccccn5)nn5c4CCC5)ccnc3c2)nc1` [Example 68, 7-Pyridin-2-yl-4-(2-Pyridin-2-yl-5,6-dihydro-4H-pyrrolo[1,2-b]pyrazol-3-yl)quinoline Ditrifluoroacetic Acid], no less than 7.00.

For the compound `c1ccc(-c2nn3c(c2-c2ccnc4cc(-c5ccc[nH]5)ccc24)CCC3)nc1` [Example 69, 4-(2-pyridin-2-yl-5,6-dihydro-4H-pyrrolo[1,2-b]pyrazol-3-yl)-7-(1H-pyrrol-2-yl)quinoline Ditrifluoroacetic Acid], the pIC50 is no less than 7.00. To `c1ccc(-c2nn3c(c2-c2ccnc4cc(-c5cc6ccccc6[nH]5)ccc24)CCC3)nc1` [Example 70, 7-(1H-Indol-2-yl)-4-(2-pyridin-2-yl-5,6-dihydro-4H-pyrrolo[1,2-b]pyrazol-3-yl)quinoline Ditrifluoroacetic Acid] belongs no less than 7.00. `c1ccc(-c2nn3c(c2-c2ccnc4cc(-c5cc[nH]c5)ccc24)CCC3)nc1` [Example 71, 4-(2-pyridin-2-yl-5,6-dihydro-4H-pyrrolo[1,2-b]pyrazol-3-yl)-7-(1H-pyrrol-3-yl)quinoline Ditrifluoroacetic Acid]: the negative logarithm of the IC50 (pIC50) was no less than 7.00. To `c1ccc(-c2nn3c(c2-c2ccnc4cc(C5CCCCC5)ccc24)CCC3)nc1` [Example 72, 7-Cyclohexyl-4-(2-pyridin-2-yl-5,6-dihydro-4H-pyrrolo[1,2-b]pyrazol-3-yl)quinoline Trifluoroacetic Acid] belongs no less than 5.00; to `OCCOc1ccc(-c2ccc3c(-c4c(-c5ccccn5)nn5c4CCC5)ccnc3c2)cc1` [Example 73, 2-{4-[4-(2-Pyridin-2-yl-5,6-dihydro-4H-pyrrolo[1,2-b]pyrazol-3-yl)quinolin-yl]phenoxy}ethanol Trifluoroacetic Acid], no less than 7.00. Regarding `O=C(O)Cc1ccc(-c2ccc3c(-c4c(-c5ccccn5)nn5c4CCC5)ccnc3c2)cc1` [Example 74, {4-[4-(2-pyridin-2-yl-5,6-dihydro-4H-pyrrolo[1,2-b]pyrazol-3-yl)quinolin-7-yl]phenyl}acetic Acid Trifluoroacetic Acid], the negative logarithm of the IC50 (pIC50) was no less than 7.00.

With `CS(=O)(=O)c1ccc(-c2ccc3c(-c4c(-c5ccccn5)nn5c4CCC5)ccnc3c2)cc1` [Example 75, 7-(4-Methanesulfonylphenyl)-4-(2-pyridin-2-yl-5,6-dihydro-4H-pyrrolo[1,2-b]pyrazol-3-yl)quinoline Trifluoroacetic Acid], the pIC50 was no less than 7.00.

Regarding `NCCc1ccc(-c2ccc3c(-c4c(-c5ccccn5)nn5c4CCC5)ccnc3c2)cc1` [Example 76, 2-{4-[4-(2-pyridin-2-yl-5,6-dihydro-4H-pyrrolo[1,2-b]pyrazol-3-yl)quinolin-7-yl]phenyl}ethylamine Ditrifluoroacetic Acid], the pIC50 was no less than 7.00.

Consider `Cc1ccc(-c2ccc3c(-c4c(-c5ccccn5)nn5c4CCC5)ccnc3c2)cc1` [Example 77, 4-(2-pyridin-2-yl-5,6-dihydro-4H-pyrrolo[1,2-b]pyrazol-3-yl)-7-p-tolylquinoline Trifluoroacetic Acid], for which the pIC50 is no less than 7.00.

As to `Nc1ccc(-c2ccc3c(-c4c(-c5ccccn5)nn5c4CCC5)ccnc3c2)cc1F` [Example 78, 2-Fluoro-4-[4-(2-pyridin-2-yl-5,6-dihydro-4H-pyrrolo[1,2-b]pyrazol-3-yl)quinolin-7-yl]phenylamine Ditrifluoroacetic Acid], the negative logarithm of the IC50 (pIC50) is no less than 7.00. To `O=C(O)c1cc(C(=O)O)cc(-c2ccc3c(-c4c(-c5ccccn5)nn5c4CCC5)ccnc3c2)c1` [Example 79, 5-[4-(2-Pyridin-2-yl-5,6-dihydro-4H-pyrrolo[1,2-b]pyrazol-3-yl)quinolin-7-yl]isophthalic Acid Trifluoroacetic Acid] belongs no less than 5.00; to `COC(=O)c1cc(C(=O)OC)cc(-c2ccc3c(-c4c(-c5ccccn5)nn5c4CCC5)ccnc3c2)c1` [Example 80, 5-[4-(2-Pyridin-2-yl-5,6-dihydro-4H-pyrrolo[1,2-b]pyrazol-3-yl)quinolin-7-yl]isophthalic Acid Dimethyl Ester Trifluoroacetic Acid], no less than 5.00.

On to `O=S1(=O)Cc2ccc(-c3ccc4c(-c5c(-c6ccccn6)nn6c5CCC6)ccnc4c3)cc2C1` [Example 81], for which the pIC50 was no less than 7.00. As for `O=C(O)c1cccc(-c2ccc3c(-c4c(-c5ccccn5)nn5c4CCC5)ccnc3c2)n1` [Example 82, 6-[4-(2-Pyridin-2-yl-5,6-dihydro-4H-pyrrolo[1,2-b]pyrazol-3-yl)quinolin-7-yl]pyridine-2-carboxylic Acid Tris-trifluoroacetic Acid], the pIC50 was no less than 7.00.

On to `Fc1ccc(-c2ccc3c(-c4c(-c5ccccn5)nn5c4CCC5)ccnc3c2)nc1` [Example 83, 7-(5-Fluoropyridin-2-yl)-4-(2-Pyridin-2-yl-5,6-dihydro-4H-pyrrolo[1,2-b]pyrazol-3-yl)quinoline Ditrifluoroacetic Acid], for which the pIC50 is no less than 5.00.
